Converted amounts (≈) assume the structure as drawn.
What was measured:
Candida tropicalis = assay: Inhibition of chitin synthase extracted from Candida tropicalis ATCC 750 using UDP-GlcNAc as substrate assessed as inhibition rate at 300 ug/ml by TMB based microplate analyzer relative to control; details: dose 300.0 µg/ml
Cryptococcus neoformans = assay: Antifungal activity against Cryptococcus neoformans ATCC 32719 assessed as inhibition of growth incubated for 24 hrs by two-fold serial dilution method; format: functional
Aspergillus flavus = assay: Antifungal activity against Aspergillus flavus ATCC 16870 assessed as inhibition of growth incubated for 24 hrs by two-fold serial dilution method; format: functional
Aspergillus fumigatus = assay: Antifungal activity against Aspergillus fumigatus GIMCC 3.19 assessed as inhibition of growth incubated for 24 hrs by two-fold serial dilution method; format: functional
Candida albicans = assay: Antifungal activity against Candida albicans ATCC 76615 assessed as inhibition of growth incubated for 24 hrs by two-fold serial dilution method; format: functional
[1] = Inhibition of chitin synthase extracted from Candida tropicalis ATCC 750 using UDP-GlcNAc as substrate assessed as inhibition rate by TMB based microplate analyzer relative to control

SMILES | inhibition (Candida tropicalis) | MIC (Cryptococcus neoformans) | MIC (Aspergillus flavus) | MIC (Aspergillus fumigatus) | MIC (Candida albicans) | IC50 [1]
Cc1ccc(NC(=O)C2CCN(CC(=O)Nc3ccc4c(c3)NC(=O)C3(CCNC3=O)C4)CC2)cc1 (racemic) | 45.1% | 32 µg/mL (≈ 65.4 µM) | 64 µg/mL (≈ 131 µM) | 128 µg/mL (≈ 261 µM) | 32 µg/mL (≈ 65.4 µM) | 286 µM
CCCNC(=O)C1CCN(CC(=O)Nc2ccc3c(c2)NC(=O)C2(CCNC2=O)C3)CC1 (racemic) | 22.5% | 512 µg/mL (≈ 1160 µM) | 128 µg/mL (≈ 290 µM) | 256 µg/mL (≈ 580 µM) | 128 µg/mL (≈ 290 µM) | –
O=C(CN1CCC(C(=O)Nc2nccs2)CC1)Nc1ccc2c(c1)NC(=O)C1(CCNC1=O)C2 (racemic) | 73.9% | 512 µg/mL (≈ 1060 µM) | 32 µg/mL (≈ 66.3 µM) | 256 µg/mL (≈ 530 µM) | 8 µg/mL (≈ 16.6 µM) | 157 µM
COc1ccc(NC(=O)/C=C/C(=O)Nc2ccc3c(c2)NC(=O)C2(CCNC2=O)C3)cc1 (racemic) | 49.3% | 32 µg/mL (≈ 73.7 µM) | 32 µg/mL (≈ 73.7 µM) | 64 µg/mL (≈ 147 µM) | 64 µg/mL (≈ 147 µM) | –
O=C(CN1CCC(C(=O)Nc2ccc(Cl)cc2)CC1)Nc1ccc2c(c1)NC(=O)C1(CCNC1=O)C2 (racemic) | 41.3% | 32 µg/mL (≈ 62.7 µM) | 16 µg/mL (≈ 31.4 µM) | 16 µg/mL (≈ 31.4 µM) | 64 µg/mL (≈ 125 µM) | 166 µM
O=C(/C=C/C(=O)Nc1ccc2c(c1)NC(=O)C1(CCNC1=O)C2)Nc1ccc(Cl)cc1 (racemic) | 56.3% | 64 µg/mL (≈ 146 µM) | 32 µg/mL (≈ 72.9 µM) | 32 µg/mL (≈ 72.9 µM) | 32 µg/mL (≈ 72.9 µM) | 496 µM
CC(C)NC(=O)/C=C/C(=O)Nc1ccc2c(c1)NC(=O)C1(CCNC1=O)C2 (racemic) | 34.6% | 128 µg/mL (≈ 346 µM) | 256 µg/mL (≈ 691 µM) | 64 µg/mL (≈ 173 µM) | 128 µg/mL (≈ 346 µM) | –
Cc1ccc(NC(=O)C2CCN(CC(=O)Nc3ccc4c(c3)NC(=O)C3(CCNC3=O)C4)CC2)cc1C (racemic) | 42.3% | 64 µg/mL (≈ 127 µM) | 32 µg/mL (≈ 63.5 µM) | 64 µg/mL (≈ 127 µM) | 32 µg/mL (≈ 63.5 µM) | –
O=C(CN1CCC(C(=O)Nc2ccccc2)CC1)Nc1ccc2c(c1)NC(=O)C1(CCNC1=O)C2 (racemic) | 35.8% | 64 µg/mL (≈ 135 µM) | 32 µg/mL (≈ 67.3 µM) | 128 µg/mL (≈ 269 µM) | 64 µg/mL (≈ 135 µM) | –
O=C(/C=C/C(=O)Nc1ccc2c(c1)NC(=O)C1(CCNC1=O)C2)Nc1ccc(F)c(Cl)c1 (racemic) | 48.7% | 32 µg/mL (≈ 70 µM) | 64 µg/mL (≈ 140 µM) | 128 µg/mL (≈ 280 µM) | 32 µg/mL (≈ 70 µM) | –
CCCNC(=O)/C=C/C(=O)Nc1ccc2c(c1)NC(=O)C1(CCNC1=O)C2 (racemic) | 36.9% | 128 µg/mL (≈ 346 µM) | 128 µg/mL (≈ 346 µM) | 64 µg/mL (≈ 173 µM) | 128 µg/mL (≈ 346 µM) | –
CCCN(CCC)C(=O)/C=C/C(=O)Nc1ccc2c(c1)NC(=O)C1(CCNC1=O)C2 (racemic) | 26.3% | 128 µg/mL (≈ 310 µM) | 128 µg/mL (≈ 310 µM) | 256 µg/mL (≈ 621 µM) | 128 µg/mL (≈ 310 µM) | –
COc1ccc(NC(=O)C2CCN(CC(=O)Nc3ccc4c(c3)NC(=O)C3(CCNC3=O)C4)CC2)cc1 (racemic) | 75.9% | 64 µg/mL (≈ 127 µM) | 32 µg/mL (≈ 63.3 µM) | 64 µg/mL (≈ 127 µM) | 128 µg/mL (≈ 253 µM) | –
O=C(/C=C/C(=O)Nc1ccc2c(c1)NC(=O)C1(CCNC1=O)C2)Nc1ccc(F)cc1 (racemic) | 46.8% | 32 µg/mL (≈ 75.8 µM) | 32 µg/mL (≈ 75.8 µM) | 64 µg/mL (≈ 152 µM) | 128 µg/mL (≈ 303 µM) | –

From ChEMBL document CHEMBL6127079, “Design and synthesis of spiro[pyrrolidine-3,3'-quinoline]-2,2'-dione derivatives as novel antifungal agents targeting chitin synthase” (Eur J Med Chem, 2024)
